The values below come from article PMC11831592, “Repurposing Linezolid in Conjunction with Histone Deacetylase Inhibitor Access in the Realm of Glioblastoma Therapies” (Journal of Medicinal Chemistry, 2025).

Test [1] concerns GBM, TMZ-resistant GBM, and patient-derived TMZ-resistant GBM cells. Description: CCK8 assay, GBM cell panel (range given). Format: cell-based. To be noted: read-out: IC50 values, range over GBM cells. The protocol:
(§1) Cell viability and drug cytotoxicity were determined by a CCK-8 kit (Cell Counting Kit-8, CK04-13, MD, USA) (CCK8, C0005, Target Molecule Corp., MA, USA) reagent. Cells were seeded 2 × 10^3 per well in the 96-well plate for 24 h, followed by treating at different concentrations of compounds for 72 h. Before the experiment, CCK8 was 10-fold diluted with the culture medium and then incubated with cells for 30 min. Finally, the OD was 450 nm absorbance and calculated for cell viability.

The test system of another test is LN229 GBM cells. The test can be described thus: CCK8 cell proliferation assay, LN229. Format: cell-based. To be noted: Homo sapiens, LN-229; LN229, CCK8, 72 h. The protocol:
as §1

In the next test the test system is U87MG. Description: CCK8 cell proliferation assay, U87MG. To be noted: Homo sapiens, U-87 MG, CCK8, 72 h. Type of test: cell-based. The procedure:
as §1

For the next test, the target named is T1, HDAC2 (Homo sapiens, UniProt Q92769).
T1 construct: purchased Reaction Biology Corporation, Malvern, PA (contract assay service)
T1 sequence (Q92769 whole entry): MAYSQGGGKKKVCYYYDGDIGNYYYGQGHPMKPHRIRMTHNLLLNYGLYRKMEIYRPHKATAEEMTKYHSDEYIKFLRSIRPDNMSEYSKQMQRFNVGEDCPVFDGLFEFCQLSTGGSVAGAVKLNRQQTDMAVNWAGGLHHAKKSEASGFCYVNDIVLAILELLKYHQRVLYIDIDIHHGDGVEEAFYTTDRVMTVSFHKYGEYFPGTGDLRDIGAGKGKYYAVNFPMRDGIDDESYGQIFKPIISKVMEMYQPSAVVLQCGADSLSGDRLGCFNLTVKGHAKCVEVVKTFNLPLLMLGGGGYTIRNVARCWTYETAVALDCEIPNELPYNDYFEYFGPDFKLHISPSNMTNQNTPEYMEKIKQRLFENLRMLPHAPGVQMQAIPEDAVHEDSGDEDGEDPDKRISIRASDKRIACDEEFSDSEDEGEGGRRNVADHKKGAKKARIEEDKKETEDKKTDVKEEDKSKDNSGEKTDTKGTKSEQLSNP
Description: HDAC enzyme inhibition assay, HDAC2. Format: biochemical. To be noted: 10-dose, 3-fold serial dilution starting at 10 μM. The procedure: Enzyme inhibition assays were performed by the Reaction Biology Corporation, Malvern, PA (http://www.reactionbiology.com).

A further test has as its system Primary Mouse Neuron. Description: CCK8 assay, primary culture neurons. Type of test: cell-based. The procedure:
The human glioblastoma cell lines U87MG (HTB-14), T98G (CRL-1690), and A172 (CRL-1620) were provided by the American Type Culture Collection (Manassas, VA, USA). The patient-derived cell line PT#3 was purified under the approval of the Institutional Review Board of Taipei Medical University (TMU) (No. 201006011). The murine astrocytoma cell line CT-2A (SCC194) was purchased from Merch Millipore (MA, USA). TMZ-resistant cell lines were established as described previously.[40] All cell lines were cultured in Dulbecco’s modified Eagle’s medium basal medium (Cat# 10-013-CM, CORNING, MA, USA), supplemented with 10% fetal bovine serum (Cat# 12676029, Thermo Fisher Scientific, MA, USA), 100 units/mL penicillin, and 100 μg/mL streptomycin (Cat# 15140122, Thermo Fisher Scientific) at 37 °C in the environment of 95% air and 5% carbon dioxide and maintained resistant characteristic with […] of TMZ (Cat# HY-17364, MedChemExpress, NJ, USA). Primary cultured astrocytes and neurons were derived from E17 embryonic mice. […]
Cell viability and drug cytotoxicity were determined by a CCK-8 kit (Cell Counting Kit-8, CK04-13, MD, USA) (CCK8, C0005, Target Molecule Corp., MA, USA) reagent. […] Finally, the OD was 450 nm absorbance and calculated for cell viability.

The subject of the next test is PT#3. Description: CCK8 cell proliferation assay, PT#3. Format: cell-based. To be noted: Homo sapiens; PT#3, CCK8, 72 h. The protocol: as §1

Structures are written as SMILES.

As to `O=C(/C=C/c1ccc(CNC[C@H]2CN(c3ccc(N4CCOCC4)c(F)c3)C(=O)O2)cc1)NO` [compound 1, (S,E)-3-(4-((((3-(3-Fluoro-4-morpholinophenyl)-2-oxooxazolidin-5-yl)methyl)ami-no)methyl)phenyl)-N-hydroxyacrylamide], the IC50 in test [1] is 10.3 to 30.6 µM; in the test with LN229 GBM cells it was 15.7 ± 0.93 µM; in the test with U87MG it was 13.5 ± 0.54 µM; at HDAC2, 2.81 µM; with Primary Mouse Neuron, 65.9 ± 4 µM; in the test with PT#3 it was 10.3 ± 0.52 µM.
